From PubChem BioAssay (NCI)
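Dose response: 5 concentrations. Exposure: 48 h. Format: 96-well plates. Endpoint: linear interpolation; highest concentration if not reached. TGI marks complete inhibition of growth.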

What was measured:
Assay in all cases: DTP human tumour cell line panel, 48 h
A549 NSCLC = system: A549 NSCLC
ACHN renal = system: ACHN renal
CAKI-1 renal = system: CAKI-1 renal
HCT-15 colon = system: HCT-15 colon
HOP-62 NSCLC = system: HOP-62 NSCLC
HOP-92 NSCLC = system: HOP-92 NSCLC
HT29 colon = system: HT29 colon
MDA-MB-231 breast = system: MDA-MB-231 breast
MOLT-4 leukemia = system: MOLT-4 leukemia
NCI-H23 lung = system: NCI-H23 lung
NCI-H522 lung = system: NCI-H522 lung
PC-3 prostate = system: PC-3 prostate
RPMI-8226 leukemia = system: RPMI-8226 leukemia
SF-539 CNS = system: SF-539 CNS
SK-MEL-5 melanoma = system: SK-MEL-5 melanoma
SN12C renal = system: SN12C renal
SNB-75 CNS = system: SNB-75 CNS
SR leukemia = system: SR leukemia
UACC-62 melanoma = system: UACC-62 melanoma

COc1ccc(CNC(=O)NCn2cc(-c3ccccc3)nn2)cc1
TGI (A549 NSCLC): > 100 µM
TGI (ACHN renal): > 100 µM
TGI (CAKI-1 renal): > 100 µM
TGI (HCT-15 colon): > 100 µM
TGI (HOP-62 NSCLC): > 100 µM
TGI (HOP-92 NSCLC): > 100 µM
TGI (HT29 colon): > 100 µM
TGI (MDA-MB-231 breast): > 100 µM
TGI (MOLT-4 leukemia): > 100 µM
TGI (NCI-H23 lung): > 100 µM
TGI (NCI-H522 lung): > 100 µM
TGI (PC-3 prostate): > 100 µM
TGI (RPMI-8226 leukemia): > 100 µM
TGI (SF-539 CNS): > 100 µM
TGI (SK-MEL-5 melanoma): > 100 µM
TGI (SN12C renal): > 100 µM
TGI (SNB-75 CNS): > 100 µM
TGI (SR leukemia): > 100 µM

C[C@H](NC(=O)c1ccc(CNC(=O)/C=C/c2cccc(Oc3ccccc3)c2)cc1)c1ccccc1
TGI (A549 NSCLC): > 100 µM
TGI (ACHN renal): > 100 µM
TGI (CAKI-1 renal): 59.5 µM
TGI (HCT-15 colon): > 100 µM
TGI (HOP-62 NSCLC): > 100 µM
TGI (HOP-92 NSCLC): > 100 µM
TGI (HT29 colon): > 100 µM
TGI (MDA-MB-231 breast): > 100 µM
TGI (MOLT-4 leukemia): > 100 µM
TGI (NCI-H23 lung): > 100 µM
TGI (NCI-H522 lung): > 100 µM
TGI (PC-3 prostate): > 100 µM
TGI (RPMI-8226 leukemia): > 100 µM
TGI (SF-539 CNS): 67.8 µM
TGI (SK-MEL-5 melanoma): > 100 µM
TGI (SN12C renal): > 100 µM
TGI (SNB-75 CNS): 44.2 µM
TGI (SR leukemia): > 100 µM
TGI (UACC-62 melanoma): > 100 µM

CC(=O)O[C@H]1C(=O)[C@@]2(C)[C@H]([C@H](OC(=O)c3ccccc3)[C@]3(O)C[C@H](OC(=O)[C@H](O)[C@@H](NC(=O)c4cccc(N=[N+]=[N-])c4)c4ccccc4)C(C)=C1C3(C)C)[C@]1(OC(C)=O)CO[C@@H]1C[C@@H]2O
TGI (A549 NSCLC): > 25 µM
TGI (ACHN renal): > 25 µM
TGI (CAKI-1 renal): > 25 µM
TGI (HCT-15 colon): > 25 µM
TGI (HOP-92 NSCLC): > 23.9 µM
TGI (HT29 colon): > 6.26 µM
TGI (MDA-MB-231 breast): 0.422 µM
TGI (MOLT-4 leukemia): 1.12 µM
TGI (PC-3 prostate): > 25 µM
TGI (RPMI-8226 leukemia): 0.134 µM
TGI (SF-539 CNS): 0.0133 µM
TGI (SK-MEL-5 melanoma): 3.11 µM
TGI (SN12C renal): > 25 µM
TGI (SNB-75 CNS): 0.785 µM
TGI (SR leukemia): 0.162 µM
TGI (UACC-62 melanoma): > 15.9 µM

CCSc1n/c(=C\c2ccco2)c2nncn12
TGI (A549 NSCLC): > 100 µM
TGI (ACHN renal): > 100 µM
TGI (HCT-15 colon): > 100 µM
TGI (HOP-62 NSCLC): > 100 µM
TGI (HOP-92 NSCLC): > 100 µM
TGI (HT29 colon): > 100 µM
TGI (MDA-MB-231 breast): > 100 µM
TGI (MOLT-4 leukemia): > 100 µM
TGI (NCI-H23 lung): > 100 µM
TGI (NCI-H522 lung): > 100 µM
TGI (PC-3 prostate): > 100 µM
TGI (RPMI-8226 leukemia): > 100 µM
TGI (SK-MEL-5 melanoma): > 100 µM
TGI (SN12C renal): > 100 µM
TGI (SNB-75 CNS): > 100 µM
TGI (SR leukemia): > 100 µM
TGI (UACC-62 melanoma): > 100 µM

CCCCc1ccc(Nc2nc(SC)c3[nH]cnc3n2)cc1
TGI (A549 NSCLC): > 100 µM
TGI (ACHN renal): > 100 µM
TGI (CAKI-1 renal): > 100 µM
TGI (HCT-15 colon): > 100 µM
TGI (HOP-62 NSCLC): 57.7 µM
TGI (HOP-92 NSCLC): > 100 µM
TGI (HT29 colon): > 100 µM
TGI (MDA-MB-231 breast): > 100 µM
TGI (MOLT-4 leukemia): > 100 µM
TGI (NCI-H23 lung): > 100 µM
TGI (NCI-H522 lung): > 100 µM
TGI (PC-3 prostate): > 100 µM
TGI (RPMI-8226 leukemia): > 100 µM
TGI (SF-539 CNS): > 100 µM
TGI (SK-MEL-5 melanoma): > 100 µM
TGI (SN12C renal): > 100 µM
TGI (SNB-75 CNS): > 100 µM
TGI (SR leukemia): 9.69 µM
TGI (UACC-62 melanoma): > 100 µM

COc1ccc(-n2cnc3c2NC(C)(C)N=C3C(N)=O)c(OC)c1
TGI (A549 NSCLC): > 100 µM
TGI (ACHN renal): > 100 µM
TGI (CAKI-1 renal): > 100 µM
TGI (HCT-15 colon): > 100 µM
TGI (HOP-62 NSCLC): > 100 µM
TGI (HOP-92 NSCLC): > 100 µM
TGI (HT29 colon): > 100 µM
TGI (MDA-MB-231 breast): > 100 µM
TGI (NCI-H23 lung): > 100 µM
TGI (NCI-H522 lung): > 100 µM
TGI (PC-3 prostate): > 100 µM
TGI (RPMI-8226 leukemia): > 100 µM
TGI (SF-539 CNS): > 100 µM
TGI (SK-MEL-5 melanoma): > 100 µM
TGI (SN12C renal): > 100 µM
TGI (SNB-75 CNS): > 100 µM
TGI (SR leukemia): > 100 µM
TGI (UACC-62 melanoma): > 100 µM

Cn1c(O)c(C=Nc2ccccc2[N+](=O)[O-])c(=O)n(C)c1=O
TGI (A549 NSCLC): > 100 µM
TGI (ACHN renal): > 100 µM
TGI (CAKI-1 renal): > 100 µM
TGI (HCT-15 colon): > 100 µM
TGI (HOP-62 NSCLC): > 100 µM
TGI (HOP-92 NSCLC): > 100 µM
TGI (HT29 colon): > 100 µM
TGI (MDA-MB-231 breast): > 100 µM
TGI (MOLT-4 leukemia): > 100 µM
TGI (NCI-H23 lung): > 100 µM
TGI (NCI-H522 lung): > 100 µM
TGI (PC-3 prostate): > 100 µM
TGI (RPMI-8226 leukemia): > 100 µM
TGI (SF-539 CNS): > 100 µM
TGI (SK-MEL-5 melanoma): > 100 µM
TGI (SN12C renal): > 100 µM
TGI (SNB-75 CNS): > 100 µM
TGI (SR leukemia): > 100 µM
TGI (UACC-62 melanoma): > 100 µM

C=CCOC(=O)NC1C(OC(C)[C@@H](NC(=O)OCc2ccccc2)C(=O)OC(C)(C)C)OC(COC(C)=O)C(OC(C)=O)C1OC(C)=O (some centres not stated)
TGI (A549 NSCLC): > 100 µM
TGI (ACHN renal): > 100 µM
TGI (CAKI-1 renal): > 100 µM
TGI (HCT-15 colon): > 100 µM
TGI (HOP-62 NSCLC): > 100 µM
TGI (HOP-92 NSCLC): > 100 µM
TGI (HT29 colon): > 100 µM
TGI (MDA-MB-231 breast): 96.2 µM
TGI (MOLT-4 leukemia): > 100 µM
TGI (NCI-H23 lung): > 100 µM
TGI (NCI-H522 lung): > 100 µM
TGI (PC-3 prostate): > 100 µM
TGI (RPMI-8226 leukemia): > 100 µM
TGI (SF-539 CNS): > 100 µM
TGI (SK-MEL-5 melanoma): > 100 µM
TGI (SN12C renal): > 100 µM
TGI (SNB-75 CNS): 9.46 µM
TGI (SR leukemia): > 100 µM
TGI (UACC-62 melanoma): > 100 µM

COc1cc2c(cc1OCCCCN1C(=O)c3cccc4cccc(c34)C1=O)N=C[C@@H]1CCCN1C2=O
TGI (A549 NSCLC): > 53.4 µM
TGI (ACHN renal): 5.2 µM
TGI (CAKI-1 renal): 10.1 µM
TGI (HCT-15 colon): 14.8 µM
TGI (HOP-62 NSCLC): 33.6 µM
TGI (HOP-92 NSCLC): > 45.8 µM
TGI (HT29 colon): 18.8 µM
TGI (MDA-MB-231 breast): 29.4 µM
TGI (MOLT-4 leukemia): > 100 µM
TGI (NCI-H23 lung): 11.5 µM
TGI (NCI-H522 lung): 4.59 µM
TGI (PC-3 prostate): > 70.3 µM
TGI (RPMI-8226 leukemia): 27.4 µM
TGI (SF-539 CNS): 7.1 µM
TGI (SK-MEL-5 melanoma): 4.42 µM
TGI (SN12C renal): 17.7 µM
TGI (SR leukemia): > 100 µM
TGI (UACC-62 melanoma): 39.9 µM

NC(=O)c1cc2ccc(O)cc2oc1=Nc1ccccc1
TGI (A549 NSCLC): > 100 µM
TGI (ACHN renal): > 100 µM
TGI (CAKI-1 renal): > 100 µM
TGI (HCT-15 colon): > 100 µM
TGI (HOP-62 NSCLC): > 100 µM
TGI (HOP-92 NSCLC): > 100 µM
TGI (HT29 colon): > 100 µM
TGI (MDA-MB-231 breast): > 100 µM
TGI (MOLT-4 leukemia): 88.8 µM
TGI (NCI-H23 lung): 56 µM
TGI (NCI-H522 lung): 77.9 µM
TGI (PC-3 prostate): > 100 µM
TGI (RPMI-8226 leukemia): 63.8 µM
TGI (SK-MEL-5 melanoma): 69 µM
TGI (SN12C renal): 66 µM
TGI (SNB-75 CNS): 68.3 µM
TGI (SR leukemia): 53.9 µM
TGI (UACC-62 melanoma): > 100 µM

CC1=NN(c2nc(N)nc(CSc3nc4n(c(=S)n3)CCN4)n2)C(C)(C)C1
TGI (ACHN renal): > 100 µM
TGI (CAKI-1 renal): 61.2 µM
TGI (HCT-15 colon): > 100 µM
TGI (HOP-62 NSCLC): 27.9 µM
TGI (HOP-92 NSCLC): 44.3 µM
TGI (HT29 colon): > 100 µM
TGI (MDA-MB-231 breast): > 100 µM
TGI (MOLT-4 leukemia): > 100 µM
TGI (NCI-H23 lung): > 100 µM
TGI (PC-3 prostate): > 100 µM
TGI (RPMI-8226 leukemia): > 100 µM
TGI (SF-539 CNS): > 100 µM
TGI (SK-MEL-5 melanoma): > 100 µM
TGI (SNB-75 CNS): 39.7 µM
TGI (SR leukemia): > 100 µM
TGI (UACC-62 melanoma): > 100 µM

CCCN(CCCc1ccccc1)CCc1ccc2[nH]c(=S)[nH]c2c1
TGI (A549 NSCLC): > 100 µM
TGI (ACHN renal): > 100 µM
TGI (CAKI-1 renal): > 100 µM
TGI (HCT-15 colon): > 100 µM
TGI (HOP-62 NSCLC): > 100 µM
TGI (HOP-92 NSCLC): 42.6 µM
TGI (MDA-MB-231 breast): > 100 µM
TGI (MOLT-4 leukemia): 54 µM
TGI (NCI-H23 lung): > 100 µM
TGI (PC-3 prostate): > 100 µM
TGI (RPMI-8226 leukemia): 39.9 µM
TGI (SN12C renal): > 100 µM
TGI (SNB-75 CNS): 68.3 µM
TGI (SR leukemia): 25.1 µM
TGI (UACC-62 melanoma): 74.4 µM
